{"source": "patent US10898570B2", "about": "“Combination therapy with an anti-HER2 antibody-drug conjugate and a Bcl-2 inhibitor” (Genentech, Inc., priority 2015, dated 2021)", "key": {"[1]": {"tested_on": "Clone #17 T-DM1 resistant KPL-4 human breast cancer xenografts", "assay": "xenograft study, tumor volume", "format": "in vivo, SCID beige mice", "source_text": "For all xenograft studies, three million T-DM1-resistant KPL-4 breast cancer cells were implanted in #2/3 mammary fat pads of female SCID-beige mice. […] The results of these xenograft studies for xenografts of various clones of the T-DM1-resistant KPL-4 breast cancer cells are shown in FIGS. 5B and 6C."}, "[2]": {"details": "cited from earlier work"}, "[3]": {"tested_on": "HER2+ HCC1569 breast cancer cells (T-DM1 naive)", "assay": "caspase 3/7 activation luminescent in vitro apoptosis assay", "format": "cell-based", "details": "24 hours; five concentrations of GDC-0199, 9 concentrations of T-DM1", "method": "(§1) In the present experiment, caspase 3/7 activation luminescence assay was performed using the Caspase-Glo® reagent (Promega) essentially following manufacturer's instructions. Assays were performed in the same manner as the viability assays except that drug incubation times were 24 hours and Caspase-Glo 3/7 (Promega) was used to measure apoptosis.\n(§2) Caspase 3/7 activation luminescence assay was performed as described in Example 3."}, "[4]": {"tested_on": "HER2+ MDA-MB-361 breast cancer cells (T-DM1 naive)", "assay": "caspase 3/7 activation luminescent in vitro apoptosis assay", "format": "cell-based", "details": "24 hours; five concentrations of GDC-0199, 9 concentrations of T-DM1", "method": "as §1, §2"}, "[5]": {"tested_on": "KPL-4 parental cells", "assay": "caspase 3/7 activation luminescence assay (Caspase-Glo)", "format": "cell-based, human", "method": "(§3) In the present experiment, caspase 3/7 activation luminescence assay was performed using the Caspase-Glo® reagent (Promega) essentially following manufacturer's instructions. […]"}, "[6]": {"tested_on": "T-DM1-resistant KPL-4 (HER2+) breast cancer cells", "assay": "caspase 3/7 activation luminescence assay (Caspase-Glo)", "format": "cell-based, human", "details": "48 hours; T-DM1 0.1 or 1 μg/mL; GDC-0199 1, 2.5 or 5 μM", "method": "as §3"}, "[7]": {"details": "weekly dosing with 2.4 mg/kg; cited from earlier work"}, "[8]": {"tested_on": "Clone #17 T-DM1 resistant KPL-4 human breast cancer cell line", "assay": "caspase 3/7 activation luminescence assay (Caspase-Glo)", "format": "cell-based", "details": "48 hours; 1 ug/mL T-DM1 alone or with indicated doses of GDC-0199", "method": "as §3"}, "[9]": {"tested_on": "Bcl-2", "details": "T-DM1 1.25 μg/mL; cell lines BT-474, MDA_361 and ZR-75-30", "description": "Western blot analysis was performed as follows: Cells were lysed in corrected FLAG elution buffer (CFEB) (19.17 mM Tris (pH 7.5), 916.7 μM MgCl2, 92.5 mM NaCl and 0.1% Triton X-100) with protease and phosphatase inhibitors (Roche); in some cases 6 M urea was added. Cleared lysates were quantitated and equal amounts of proteins were reduced, alkylated, separated by SDS-PAGE, and transferred onto PVDF membranes (Invitrogen) following standard procedures. Western blotting was performed as recommended by the respective antibody manufacturers.\nThe effect of treatment with T-DM1 (1.25 μg/mL) alone or in combination with GDC-0199 (1.25 μM) was studied on various T-DM1 naïve HER2+ breast cancer cell lines."}}}
{"molecule": "CC1(C)CCC(CN2CCN(c3ccc(C(=O)NS(=O)(=O)c4ccc(NCC5CCOCC5)c([N+](=O)[O-])c4)c(Oc4cnc5[nH]ccc5c4)c3)CC2)=C(c2ccc(Cl)cc2)C1", "note": "[GDC-0199, 2-(1H-pyrrolo[2,3-b]pyridin-5-yloxy)-4-(4-((2-(4-chlorophenyl)-4,4-dimethylcyclohex-1-enyl)methyl)piperazin-1-yl)-N-(3-nitro-4-((tetrahydro-2H-pyran-4-yl)methylamino)phenylsulfonyl)benzamide]", "values": [{"measurement": "tumor growth (tumor volume)", "setting": "[1]; 100 mg/kg", "value": "no activity"}]}
{"molecule": "COc1cc2cc(c1Cl)N(C)C(=O)C[C@H](OC(=O)[C@H](C)N(C)C(C)=O)[C@]1(C)O[C@H]1[C@H](C)[C@@H]1C[C@@](O)(NC(=O)O1)[C@H](OC)/C=C/C=C(\\C)C2", "note": "[maytansine]", "values": [{"measurement": "dose-limiting toxicity (DLT)", "setting": "[2]; 2.0 mg/m2 every 3 weeks, single dose or 3 consecutive days", "value": "gastrointestinal"}, {"measurement": "activity in the clinic", "setting": "[2]; at doses that could be safely delivered", "value": "modest"}]}
{"molecule": "trastuzumab-MCC-DM1 [T-DM1]", "values": [{"measurement": "caspase 3/7 activity (apoptosis)", "setting": "[3]", "value": "does not induce apoptosis"}, {"measurement": "caspase 3/7 activity (apoptosis)", "setting": "[4]", "value": "caspases 3 and 7 activation"}, {"measurement": "activation of caspases 3 and 7 (apoptosis)", "setting": "[5]; 24 hours of drug treatment", "value": "no effect"}, {"measurement": "activation of caspases 3 and 7 (apoptosis)", "setting": "[5]; 48 hours, T-DM1 0.1 or 1 μg/mL, GDC-0199 1, 2.5 or 5 μM", "value": "robust activation"}, {"measurement": "activation of caspases 3 and 7 (apoptosis)", "setting": "[6]", "value": "minimal effect"}, {"measurement": "anti-tumor activity", "setting": "[7]", "value": "anti-tumor activity"}, {"measurement": "tumor growth (tumor volume)", "setting": "[1]; T-DM1 5 mg/kg administered once, GDC-0199 100 mg/kg qd×21", "value": "no activity"}, {"measurement": "activation of caspases 3 and 7 (apoptosis)", "setting": "[8]", "value": "minimal effect"}, {"measurement": "phosphorylation of Bcl-2 after treatment (Western blot)", "setting": "[9]", "value": "phosphorylation of Bcl-2"}]}
